Assay results published in patent US20250090529A1, “USE OF SHP2 INHIBITORS FOR THE TREATMENT OF INSULIN RESISTANCE” (INSERM (INSTITUT NATIONAL DE LA SANTÉ ET DE LA RECHERCHE …, priority 2018, published 2025).

Key:
Obese diabetic mice = assay: OGTT in obese diabetic mice after chronic SHP2 inhibition; details: gavage 50 mg/kg/day
Procedure: Obese diabetic mice were treated by gavage (50 mg/kg/day). After 15 days of treatment an OGTT was performed (FIG. 1).

[1] = test system: renal fibrosis induced by carbon tetrachloride; details: Kostallari et al., 2018; cited from earlier work
[2] = Garcia Fortanet et al., J Med Chem 2016; cited from earlier work
[3] = after 15 days of treatment, compared to control

- body composition (Obese diabetic mice; 15 days of treatment): without any change
- weight (Obese diabetic mice; 15 days of treatment): without any change
Structure (SMILES): CC1(N)CCN(c2cnc(-c3cccc(Cl)c3Cl)c(N)n2)CC1 [SHP099, 6-(4-amino-4-methylpiperidin-1-yl)-3-(2,3-dichlorophenyl)pyrazin-2-amine]
- fasting blood glucose (Obese diabetic mice; [3]): decreased fasting blood glucose
- glucose tolerance (OGTT) (Obese diabetic mice; [3]): significant improvement in the glucose tolerance
- effectiveness in treatment of renal fibrosis [1]: effectiveness in treatment of renal fibrosis
- oral bioavailability [2]: good
- tolerance [2]: good tolerance
